From patent publication US20250195521A1 (Revolution Medicines, Inc., priority 2020, published 2025)
Read-outs that look alike come from different tables or passages of the source.

Tests used:
AsPC-1 (K-Ras G12D) [1] = test: CellTiter-Glo cell viability assay, AsPC-1; type: cell-based, human; conditions: Homo sapiens, ASPC1, 120 h, read-out: AsPC-1 Cell Viability IC50
Experimental: Note—The following protocol describes a procedure for monitoring cell viability of K-Ras mutant cancer cell lines in response to a compound of the invention. Other RAS isoforms may be employed, though the number of cells to be seeded will vary based on cell line used.
Test compounds (132.5 nL) were directly dispensed into the assay plates containing cells. […] On day 5, assay plates and their contents were equilibrated to room temperature for approximately 30 minutes. […] Luminescence was measured using the PerkinElmer Enspire. Data were normalized by the following: (Sample signal/Avg. DMSO)*100. The data were fit using a four-parameter logistic fit.

NCI-H358 (K-Ras G12C) = test: CellTiter-Glo cell viability assay, NCI-H358; type: cell-based, human; conditions: Homo sapiens, NCI-H358, 120 h, 5-day treatment; read-out: H358 Cell Viability assay data (K-Ras G12C, IC50)
In short: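 Luminescent CellTiter-Glo read-out on day 5 after compound exposure; signal expressed as percent of mean DMSO control; four-parameter logistic fit gives the value.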

[2] = target: K-Ras G12C(GMP-PNP) binding to BRAF RBD (Homo sapiens (Human), UniProt P01116+P62937, G12C); test: Disruption of BRAF RBD interaction with K-Ras (FRET / MOA assay), K-Ras G12C; type: biochemical; conditions: read-out: KRAS G12C FRET IC50
Chain of K-Ras G12C(GMP-PNP) binding to BRAF RBD (P01116 other isoform, or with tags, fused parts or gaps G12C): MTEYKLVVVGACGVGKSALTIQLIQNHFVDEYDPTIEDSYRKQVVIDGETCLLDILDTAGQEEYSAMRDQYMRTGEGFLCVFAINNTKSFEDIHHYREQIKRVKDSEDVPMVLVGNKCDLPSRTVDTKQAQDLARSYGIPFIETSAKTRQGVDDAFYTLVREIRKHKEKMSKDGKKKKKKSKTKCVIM
Chain of K-Ras G12C(GMP-PNP) binding to BRAF RBD (P62937 whole entry): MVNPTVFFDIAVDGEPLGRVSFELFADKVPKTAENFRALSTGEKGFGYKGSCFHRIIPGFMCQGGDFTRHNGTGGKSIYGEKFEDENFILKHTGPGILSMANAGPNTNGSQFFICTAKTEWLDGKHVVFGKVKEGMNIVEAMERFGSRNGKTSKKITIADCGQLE
In short: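 Cpd 10-pt 3-fold dilution, top 30 μM final; Ras/CypA/BRAF RBD mix 3 h, 25° C. Add anti-His Eu-W1024 10 nM + anti-GST APC 50 nM final, 1.5 h. Readout TR-FRET ratio decrease vs DMSO → IC50.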

KRAS G12V = KRAS G12V (Homo sapiens (Human), UniProt P01116+P62937, G12V); test: Ras-Raf disruption/FRET/MOA assay (BRAF RBD, Cyclophilin A); type: biochemical; conditions: read-out: KRAS G12V FRET IC50
Chain of KRAS G12V (P01116 other isoform, or with tags, fused parts or gaps G12V): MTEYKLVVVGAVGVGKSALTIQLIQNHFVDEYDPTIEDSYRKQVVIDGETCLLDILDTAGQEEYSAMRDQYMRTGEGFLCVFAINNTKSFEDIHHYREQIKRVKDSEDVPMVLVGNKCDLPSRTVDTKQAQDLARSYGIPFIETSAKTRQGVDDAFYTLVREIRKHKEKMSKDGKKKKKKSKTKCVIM
Chain of KRAS G12V (P62937 whole entry): as the sequence (P62937 whole entry) above
In short: (§1)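 TR-FRET readout: anti-His Eu-W1024 (10 nM) and anti-GST allophycocyanin (50 nM) added after 3 h, 25° C compound incubation, then 1.5 h more. Decrease in FRET ratio versus DMSO wells marks Ras:RAF disruption; IC50 reported.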

KRAS G12S = KRAS G12S (Homo sapiens (Human), UniProt P01116+P62937, G12S); test: as above; type: biochemical; conditions: read-out: KRAS G12S FRET IC50
Chain of KRAS G12S (P01116 other isoform, or with tags, fused parts or gaps G12S): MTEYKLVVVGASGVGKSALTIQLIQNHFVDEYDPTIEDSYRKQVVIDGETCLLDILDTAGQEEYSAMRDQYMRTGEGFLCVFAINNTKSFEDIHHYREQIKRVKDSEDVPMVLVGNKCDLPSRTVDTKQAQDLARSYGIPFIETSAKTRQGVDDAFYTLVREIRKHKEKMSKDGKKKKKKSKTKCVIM
Chain of KRAS G12S (P62937 whole entry): as the sequence (P62937 whole entry) above
In short: as §1

NRAS WT = NRAS WT (Homo sapiens (Human), UniProt P01111+P62937); test: as above; type: biochemical
Chain of NRAS WT (P01111 whole entry): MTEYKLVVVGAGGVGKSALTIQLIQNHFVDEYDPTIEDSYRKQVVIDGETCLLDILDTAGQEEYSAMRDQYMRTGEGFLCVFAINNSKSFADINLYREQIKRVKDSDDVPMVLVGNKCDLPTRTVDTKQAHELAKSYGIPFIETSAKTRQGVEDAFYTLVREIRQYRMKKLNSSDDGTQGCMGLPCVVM
Chain of NRAS WT (P62937 whole entry): as the sequence (P62937 whole entry) above
In short: (§2)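 Ras-GMPPNP (12.5 nM), BRAF RBD (50 nM) and 25 μM Cyclophilin A were incubated with compound for 3 h at 25° C, then detected 1.5 h with anti-His Eu and anti-GST APC; IC50 values follow from the reduced TR-FRET ratio.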

KRAS G13C = KRAS G13C (Homo sapiens (Human), UniProt P01116+P62937, G13C); test: as above; type: biochemical; conditions: read-out: KRAS G13C FRET IC50
Chain of KRAS G13C (P01116 other isoform, or with tags, fused parts or gaps G13C): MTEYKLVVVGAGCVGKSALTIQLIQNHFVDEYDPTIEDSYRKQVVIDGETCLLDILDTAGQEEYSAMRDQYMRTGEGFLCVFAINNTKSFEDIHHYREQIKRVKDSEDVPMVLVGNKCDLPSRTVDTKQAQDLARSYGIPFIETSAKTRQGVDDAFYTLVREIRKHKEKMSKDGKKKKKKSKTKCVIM
Chain of KRAS G13C (P62937 whole entry): as the sequence (P62937 whole entry) above
In short: as §1

KRAS G13D = KRAS G13D (Homo sapiens (Human), UniProt P01116+P62937, G13D); test: as above; type: biochemical; conditions: read-out: KRAS G13D FRET data IC50
Chain of KRAS G13D (P01116 other isoform, or with tags, fused parts or gaps G13D): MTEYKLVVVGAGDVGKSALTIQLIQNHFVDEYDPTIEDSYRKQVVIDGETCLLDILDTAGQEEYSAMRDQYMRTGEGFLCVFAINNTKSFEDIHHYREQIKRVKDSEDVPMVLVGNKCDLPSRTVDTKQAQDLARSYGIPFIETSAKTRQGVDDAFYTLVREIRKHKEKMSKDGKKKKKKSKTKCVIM
Chain of KRAS G13D (P62937 whole entry): as the sequence (P62937 whole entry) above
In short: as §1

NRAS G12C = NRAS G12C (Homo sapiens (Human), UniProt P01111+P62937, G12C); test: as above; type: biochemical; conditions: read-out: NRAS G12C FRET data IC50
Chain of NRAS G12C (P01111 whole entry G12C): as the sequence (P01111 whole entry) above, with G12C counted along it
Chain of NRAS G12C (P62937 whole entry): as the sequence (P62937 whole entry) above
In short: as §2

KRAS G12C = KRAS G12C (Homo sapiens (Human), UniProt P01116+P62937, G12C); test: as above; type: biochemical; conditions: read-out: KRAS G12C FRET IC50
Chain of KRAS G12C (P01116-2 other isoform, or with tags, fused parts or gaps G12C): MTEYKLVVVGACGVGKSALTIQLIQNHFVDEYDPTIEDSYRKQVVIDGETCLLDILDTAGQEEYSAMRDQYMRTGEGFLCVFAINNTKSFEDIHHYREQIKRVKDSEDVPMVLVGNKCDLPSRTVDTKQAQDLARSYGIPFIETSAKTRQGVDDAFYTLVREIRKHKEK
Chain of KRAS G12C (P62937 whole entry): as the sequence (P62937 whole entry) above
In short: as §1

KRAS WT = KRAS WT (Homo sapiens (Human), UniProt P01116+P62937); test: as above; type: biochemical; conditions: read-out: KRAS WT FRET data IC50
Chain of KRAS WT (P01116 other isoform, or with tags, fused parts or gaps): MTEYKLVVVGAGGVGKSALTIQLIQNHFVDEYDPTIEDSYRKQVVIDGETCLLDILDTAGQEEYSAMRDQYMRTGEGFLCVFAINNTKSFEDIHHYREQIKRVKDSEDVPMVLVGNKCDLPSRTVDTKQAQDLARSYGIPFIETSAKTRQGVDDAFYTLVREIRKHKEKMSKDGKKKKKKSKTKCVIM
Chain of KRAS WT (P62937 whole entry): as the sequence (P62937 whole entry) above
In short: as §1

KRAS Q61H = KRAS Q61H (Homo sapiens (Human), UniProt P01116+P62937, Q61H); test: as above; type: biochemical
Chain of KRAS Q61H (P01116 other isoform, or with tags, fused parts or gaps Q61H): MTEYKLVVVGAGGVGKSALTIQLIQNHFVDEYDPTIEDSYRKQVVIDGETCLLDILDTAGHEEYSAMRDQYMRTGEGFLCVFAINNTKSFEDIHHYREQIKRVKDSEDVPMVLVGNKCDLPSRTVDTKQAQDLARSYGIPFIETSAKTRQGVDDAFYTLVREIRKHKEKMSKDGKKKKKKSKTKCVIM
Chain of KRAS Q61H (P62937 whole entry): as the sequence (P62937 whole entry) above
In short: as §1

NRAS Q61K = NRAS Q61K (Homo sapiens (Human), UniProt P01111+P62937, Q61K); test: as above; type: biochemical
Chain of NRAS Q61K (P01111 whole entry Q61K): as the sequence (P01111 whole entry) above, with Q61K counted along it
Chain of NRAS Q61K (P62937 whole entry): as the sequence (P62937 whole entry) above
In short: as §2

NRAS Q61R = NRAS Q61R (Homo sapiens (Human), UniProt P01111+P62937, Q61R); test: as above; type: biochemical
Chain of NRAS Q61R (P01111 whole entry Q61R): as the sequence (P01111 whole entry) above, with Q61R counted along it
Chain of NRAS Q61R (P62937 whole entry): as the sequence (P62937 whole entry) above
In short: as §2

KRAS G12D = KRAS G12D (Homo sapiens (Human), UniProt P01116+P62937, G12D); test: as above; type: biochemical; conditions: read-out: KRAS G12D FRET IC50
Chain of KRAS G12D (P01116 other isoform, or with tags, fused parts or gaps G12D): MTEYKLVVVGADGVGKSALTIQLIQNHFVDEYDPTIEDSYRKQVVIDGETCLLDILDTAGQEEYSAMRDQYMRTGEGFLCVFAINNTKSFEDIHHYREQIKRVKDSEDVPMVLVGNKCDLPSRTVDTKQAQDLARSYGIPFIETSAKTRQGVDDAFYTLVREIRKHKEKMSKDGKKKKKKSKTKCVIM
Chain of KRAS G12D (P62937 whole entry): as the sequence (P62937 whole entry) above
In short: as §1

[3] = test system: NCI-H358 cells (K-Ras G12C); test: CellTiter-Glo cell viability, NCI-H358; type: cell-based, human; conditions: Homo sapiens, NCI-H358, 120 h, K-Ras G12C, 5-day treatment; read-out: H358 Cell Viability IC50
In short: (§3)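 Luminescence read on day 5 after ~30 min room-temperature equilibration; compounds added directly to plated cells. Values = (sample signal/avg DMSO)*100, four-parameter logistic fit.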

[4] = test system: Capan-1 cells (K-Ras G12V); test: CellTiter-Glo cell viability, Capan-1; type: cell-based, human; conditions: Homo sapiens, CAPAN-1, 120 h, K-Ras G12V, 5-day treatment; read-out: Capan-1 Cell Viability IC50
In short: as §3

AsPC-1 (K-Ras G12D) [5] = test: Potency assay: pERK; type: cell-based, human; conditions: Homo sapiens, ASPC1, read-out: pERK EC50
Experimental: The purpose of this assay is to measure the ability of test compounds to inhibit K-Ras in cells. […] This procedure measures a decrease in cellular pERK in response to test compounds. The procedure described below in NCI-H358 cells is applicable to K-Ras G12C.
NCI-H358 cells were grown and maintained using media and procedures recommended by the ATCC. On the day prior to compound addition, cells were plated in 384-well cell culture plates (40 μl/well) and grown overnight in a 37° C., 5% CO2 incubator. Test compounds were prepared in 10, 3-fold dilutions in DMSO, with a high concentration of 10 mM. On the day of assay, 40 nL of test compound was added to each well of cell culture plate using an Echo550 liquid handler (LabCyte®). Concentrations of test compound were tested in duplicate. After compound addition, cells were incubated 4 hours at 37° C., 5% CO2. Following incubation, culture medium was removed and cells were washed once with phosphate buffered saline.
In some experiments, cellular pERK level was determined using the AlphaLISA SureFire Ultra p-ERK1/2 Assay Kit (PerkinElmer). Cells were lysed in 25 μL lysis buffer, with shaking at 600 RPM at room temperature. Lysate (10 μL) was transferred to a 384-well Opti-plate (PerkinElmer) and 5 μL acceptor mix was added. After a 2-hour incubation in the dark, 5 μL donor mix was added, plate was sealed, and incubated 2 hours at room temperature. Signal was read on an Envision plate reader (PerkinElmer) using standard AlphaLISA settings. Analysis of raw data was carried out in Excel (Microsoft) and Prism (GraphPad). Signal was plotted vs. the decadal logarithm of compound concentration, and IC50 was determined by fitting a 4-parameter sigmoidal concentration response model.
In other experiments, cellular pERK was determined by In-Cell Western. Following compound treatment, cells were washed twice with 200 μL tris buffered saline (TBS) and fixed for 15 minutes with 150 μL 4% paraformaldehyde in TBS. Fixed cells were washed 4 times for 5 minutes with TBS containing 0.1% Triton X-100 (TBST) and then blocked with 100 μL Odyssey blocking buffer (LI-COR) for 60 minutes at room temperature. Primary antibody (PERK, CST-4370, Cell Signaling Technology) was diluted 1:200 in blocking buffer, and 50 μL was added to each well and incubated overnight at 4° C. Cells were washed 4 times for 5 minutes with TBST. Secondary antibody (IR-800CW rabbit, LI-COR, diluted 1:800) and DNA stain DRAQ5 (LI-COR, diluted 1:2000) were added and incubated 1-2 hours at room temperature. Cells were washed 4 times for 5 minutes with TBST. Plates were scanned on a Li—COR Odyssey CLx Imager. Analysis of raw data was carried out in Excel (Microsoft) and Prism (GraphPad). Signal was plotted vs. the decadal logarithm of compound concentration, and IC50 was determined by fitting a 4-parameter sigmoidal concentration response model.

Row | SMILES | IC50 (AsPC-1 (K-Ras G12D) [1]) | EC50 (AsPC-1 (K-Ras G12D) [5]) | also measured
1 | CCn1c(-c2cccnc2[C@H](C)OC)c2c3cc(ccc31)-c1cc(O)cc(c1)C[C@H](NC(=O)[C@H](C(C)C)N(C)C(=O)N1CCN(C(=O)[C@@H]3CN3)C(=O)C1)C(=O)N1CCC[C@H](N1)C(=O)OCC(C)(C)C2 (atropisomer, axis not shown) [Example 194] | – | – | IC50 (AsPC-1 (K-Ras G12D) [1]; K-Ras G12D, 5-day treatment): > 10000 nM
2 | CCn1c(-c2cccnc2[C@H](C)OC)c2c3cc(ccc31)-c1csc(n1)C[C@H](NC(=O)[C@H](C(C)C)N(C)C(=O)N(C)[C@H]1CCCN(C)C1)C(=O)N1CCC[C@H](N1)C(=O)OCC(C)(C)C2 [Compound A588] | – | – | IC50 (NCI-H358 (K-Ras G12C)): 10 to 100 nM; IC50 [2]: 100 to 1000 nM; IC50 (KRAS G12V): 1000 to 10000 nM; IC50 (KRAS G12S): 100 to 1000 nM; IC50 (NRAS WT): 100 to 1000 nM; IC50 (KRAS G13C): 100 to 1000 nM; IC50 (KRAS G13D): 100 to 1000 nM; IC50 (NRAS G12C): 100 to 1000 nM; IC50 (KRAS G12C): 100 to 1000 nM; IC50 (KRAS WT): 100 to 1000 nM; IC50 (KRAS Q61H): 100 to 1000 nM; IC50 (NRAS Q61K): 100 to 1000 nM; IC50 (NRAS Q61R): 1000 to 10000 nM; IC50 (KRAS G12D): 100 to 1000 nM; IC50 [3]: 10 to 100 nM; IC50 [4]: 100 to 1000 nM
3 | CCn1c(-c2cccnc2[C@H](C)OC)c2c3cc(ccc31)-c1cc(O)cc(c1)C[C@H](NC(=O)[C@H](C(C)C)N(C)C(=O)[C@@H](C)N(C)C(=O)[C@H]1CN1)C(=O)N1CCC[C@H](N1)C(=O)OCC(C)(C)C2 [Example 114] | 1000 to 10000 nM | < 5000 nM | –
4 | CCn1c(-c2cccnc2[C@H](C)OC)c2c3cc(ccc31)-c1cc(O)cc(c1)C[C@H](NC(=O)[C@H](C(C)C)N(C)C(=O)CN(C)C(=O)[C@H]1N[C@H]1C1CC1)C(=O)N1CCC[C@H](N1)C(=O)OCC(C)(C)C2 [Example 134] | 1000 to 10000 nM | < 5000 nM | –
5 | CCn1c(-c2cccnc2[C@H](C)OC)c2c3cc(ccc31)-c1cc(O)cc(c1)C[C@H](NC(=O)[C@H](C(C)C)N(C)C(=O)CNC(=O)[C@H]1CN1)C(=O)N1CCC[C@H](N1)C(=O)OCC(C)(C)C2 [Example 140] | 1000 to 10000 nM | < 5000 nM | –
6 | CCn1c(-c2cccnc2[C@H](C)OC)c2c3cc(ccc31)-c1cc(O)cc(c1)C[C@H](NC(=O)[C@H](C(C)C)N(C)C(=O)N1CCN(C(=O)[C@H]3CN3)C(=O)C1)C(=O)N1CCC[C@H](N1)C(=O)OCC(C)(C)C2 [Example 143] | – | – | IC50 (AsPC-1 (K-Ras G12D) [1]; K-Ras G12D, 5-day treatment): > 10000 nM
7 | CCn1c(-c2cccnc2[C@H](C)OC)c2c3cc(ccc31)-c1cc(O)cc(c1)C[C@H](NC(=O)[C@H](C(C)C)N(C)C(=O)CNC(=O)[C@@H]1CN1)C(=O)N1CCC[C@H](N1)C(=O)OCC(C)(C)C2 [Example 147] | 1000 to 10000 nM | < 5000 nM | –
8 | CCn1c(-c2cccnc2[C@H](C)OC)c2c3cc(ccc31)-c1cc(O)cc(c1)C[C@H](NC(=O)[C@H](C(C)C)N(C)C(=O)[C@H]1CCCN1C(=O)[C@@H]1CN1)C(=O)N1CCC[C@H](N1)C(=O)OCC(C)(C)C2 [Example 151] | 1000 to 10000 nM | < 5000 nM | –
9 | CCn1c(-c2cccnc2[C@H](C)OC)c2c3cc(ccc31)-c1cc(O)cc(c1)C[C@H](NC(=O)[C@H](C(C)C)N(C)C(=O)[C@H]1CCCN1C(=O)[C@H]1CN1)C(=O)N1CCC[C@H](N1)C(=O)OCC(C)(C)C2 [Example 152] | 1000 to 10000 nM | < 5000 nM | –
10 | CCn1c(-c2cccnc2[C@H](C)OC)c2c3cc(ccc31)-c1cc(O)cc(c1)C[C@H](NC(=O)[C@H](C(C)C)N(C)C(=O)[C@H]1CC[C@@H](C)N1C(=O)[C@@H]1CN1)C(=O)N1CCC[C@H](N1)C(=O)OCC(C)(C)C2 [Example 153] | 1000 to 10000 nM | < 5000 nM | –
11 | CCn1c(-c2cccnc2[C@H](C)OC)c2c3cc(ccc31)-c1cc(O)cc(c1)C[C@H](NC(=O)[C@H](C(C)C)N(C)C(=O)[C@H]1CC[C@@H](C)N1C(=O)[C@H]1CN1)C(=O)N1CCC[C@H](N1)C(=O)OCC(C)(C)C2 [Example 154] | 1000 to 10000 nM | < 5000 nM | –
12 | CCn1c(-c2cccnc2[C@H](C)OC)c2c3cc(ccc31)-c1cc(O)cc(c1)C[C@H](NC(=O)[C@H](C(C)C)N(C)C(=O)CN(C)C(=O)[C@H]1CN1CCO)C(=O)N1CCC[C@H](N1)C(=O)OCC(C)(C)C2 (some centres unmarked) [Example 161] | 1000 to 10000 nM | < 5000 nM | –
13 | CCn1c(-c2cccnc2[C@H](C)OC)c2c3cc(ccc31)-c1cc(O)cc(c1)C[C@H](NC(=O)[C@H](C(C)C)N(C)C(=O)CN(C)C(=O)[C@@H]1CN1CCO)C(=O)N1CCC[C@H](N1)C(=O)OCC(C)(C)C2 (some centres unmarked) [Example 162] | 1000 to 10000 nM | < 5000 nM | –
